This is an account of results in US6395932B1, “1,2-diphenyl-2-propen-1-one derivatives” (Santen Pharmaceutical Co., Ltd., priority 1999, dated 2002).

SMILES strings stand for the structures.

The test system of the test is bovine cultured trabecular meshwork cells. The experiment in a line: Effects on morphology of bovine cultured trabecular meshwork cells (image analysis of cell area). Format: cell-based. Particulars: Bos taurus, 3 h, drug treatment for three hours at 37° C., rate of change in area by image analysis, read-out: EC50 (concentration required to reduce the cell area of the trabecular meshwork cells by 50%). The source says:
In order to study utility of the present compounds in glaucoma, effects of the present compounds on morphology of trabecular meshwork cells were investigated.
The possibility has been reported that drugs having effects of increasing aqueous humor outflow can be found by evaluating effects of drugs on morphology of cultured trabecular meshwork cells (Invest. Ophthalmol. Vis. Sci., 33, 2631-2640 (1992)). Accordingly, effects of the present compounds on morphology of bovine cultured trabecular meshwork cells were studied in the similar manner to the method described in the above-mentioned literature.
Morphological changes in bovine cultured trabecular meshwork cells by adding the present compounds were quantitatively evaluated by image analysis.
Bovine trabecular meshwork cells (passage number 2 to 5) cultured in a basal medium for mammalian cell culture D-MEM (Dulbecco's Modified Eagle Medium, manufactured by Gibco Co., Ltd.) containing fetal bovine serum (10%), amphotericin B (2.5 μg/ml) and gentamicin (50 μg/ml) were treated with a trypsin-EDTA solution (0.05% trypsin, 0.53 mM EDTA·4Na) 24 hours before the later drug treatment and seeded in a 24-well plate (10^4 cells/well). Twelve hours before the later drug treatment, the cells were washed with phosphate-buffered physiological saline, and then the medium was replaced by D-MEM containing amphotericin B (2.5 μg/ml) and gentamicin (50 μg/ml) (hereinafter referred to as “medium A”).
A test compound was dissolved in dimethyl sulfoxide (DMSO), and the medium A was added to the solution, followed by sterilizing the solution by filtration. The medium A was further added to the solution to dilute it at a prescribed concentration. […]
Photographed cell images were incorporated from the photographs into an image analysis system with a CCD camera (manufactured by HAMAMATU Co., Ltd.). Outlines of the incorporated cell images were traced, and areas were measured. […]
In the case of `C=C(C(=O)c1ccc(CCCN(C)C)cc1)c1ccccc1` [Compound No. 4-2, 1-[4-[3-(Dimethylamino)propyl]phenyl]-2-phenyl-2-propen-1-one], the EC50 is 0.84 µM. On to `C=C(C(=O)c1ccc(/C=C/CN(C)C)cc1)c1ccccc1` [Compound No. 4-1, 1-[4-[(E)-3-(Dimethylamino)-1-propenyl]phenyl]-2-phenyl-2-propen-1-one], for which the EC50 was 0.58 µM. With `C=C(CC)C(=O)c1ccc(OCC(=O)O)c(Cl)c1Cl` [Ethacrynic acid, reference compound] the figure was 62 µM.
